Patent EP1923473B1, “Bis-diglycolamides (BISDGA) as new extractants for lanthanides [Ln(III)] and actinides [An(III)] from aqueous high-level wastes” (Universidad Autónoma de Madrid, priority 2006, dated 2008)

How the values were obtained:
Assay type in all cases: physicochemical
[1] = Batch extraction from simulated HLLW from the PUREX process, alpha spectrometry; settings: 0.1 mol/L in TPH/1-octanol (90:10)
From the text: The feed solution used for the extraction tests is a simulated solution of an HLLW from the PUREX process, the composition of which is shown in Table 4. Table 4: Composition of the simulated HLLW-PUREX solution used for the extraction tests
The composition of the HLLW corresponds to a burn-up of 33 GWd/tHM, the generated volume of HLLW being 5000 1/t of fuel. The feed was spiked with ^241Am, ^244Cm, ^252Cf and ^152Eu. Oxalic acid and N-(2-hydroxyethyl)ethylenediaminotriacetate (HEDTA) were also added before the extraction tests.
500 µL of the aqueous and organic phases were spiked with 10 µL of a tracer solution containing 241Am, 244Cm, 252Cf and ^152Eu, and were equilibrated for 10 minutes while they were stirred vigorously in a vortex stirrer. After the separation of the phases by centrifugation, 200 µL aliquots of each phase were taken for the determination of the concentration of ^241Am and ^152Eu using a high-purity germanium spectrometer system (EG&G Ortec). The nuclides ^241Am, ^244Cm and ^252Cf were measured by alpha spectrometry with an α-Analyst device of the company Canberra-Packard GmbH, Germany.
The concentrations of the stable elements were determined by mass spectrometry with an inductively coupled plasma source (ICP-MS) in a DRC Elan 6100 device of Perkin Elmer Sciex. The aqueous phase was measured directly after the appropriate dilution. The organic phase was analyzed after having mineralized the organic matter by microwave acid digestion and subsequent dilution.
The distribution coefficients were calculated for each element according to section C).
A 0.1 mol/L solution of compound 4 in the "TPH/1-octanol (90:10)%vol" mixture was prepared. Extraction experiments were carried out with said simulated HLLW in a pure form and also adding oxalic acid and HEDTA to it. These complexing agents have shown to be effective in the DIAMEX process for the complexing of Mo, Zr (H2C2O4) and Pd (HEDTA).
Extraction experiments were carried out with said simulated HLLW in a pure form and also adding oxalic acid and HEDTA to it.

[2] = Eu/Am selectivity factor in extraction from 3 mol/L nitric acid; settings: 0.1 mol/L in TPH/1-octanol (50:50)%vol; aqueous [HNO3] 3 mol/L
Protocol: 600 µL of the organic phase of the compound to be studied, previously equilibrated, were contacted with 600 µL of aqueous phase consisting of a 3 mol/L nitric acid solution spiked with 600 Bq of ^152Eu and 600 Bq of ^241Am. It was stirred vigorously by means of an oscillating shaker for 30 minutes and the phases were separated by centrifugation at 5000 rpm. 400 µL were taken from each of the phases for determining the concentration of the radionuclides ^152Eu and ^241Am. This determination was carried out by means of the high energy gamma spectrometry technique with a high-purity Ge detector (Canberra Inc.), using the 122 keV line for the determination of ^152Eu concentration and the 59.5 keV line for the determination of ^241Am concentration. The distribution coefficient was calculated by relating the concentration of each of the radionuclides in the organic phase and in the aqueous phase, according to the expression: DM = ([M]org)/([M]aq) [formula]
The Eu/Am selectivity factor was calculated by relating the corresponding distribution coefficients of Eu with those of Am in the same experimental conditions: SFEu/Am = DEu /DAm [formula]
The distribution coefficients and the selectivity factor of each of them were determined as indicated in sections A) to C).

[3] = Radiolytic stability, extraction capability after irradiation; settings: for DEu / DAm: after 1000 kGy
Protocol: The tests of stability against irradiation were carried out in the NAYADE facility at CIEMAT site, with external ^60Co sources with an approximate activity of 5000 Ci, with a homogeneous irradiation flux. The dose rate applied in all the experiments was 4 kGy/h and integrated doses of 250 kGy, 500 kGy, 750 kGy and 1000 kGy were considered. The irradiation device consists of a metal cylinder which is introduced in a rack wherein the ^60CO sources are placed radially, such that the irradiation is homogeneous. The irradiation process is carried out submersing the device in a pool of water with a depth of 4 meters.
Irradiation tests of the solid compound (in the absence of solvent) and of the compound dissolved in the "n-dodecane/1-octanol (95:5)%vol" mixture, equilibrated with 3 mol/L nitric acid, were carried out. The organic solutions were prepared and equilibrated as detailed in the previous sections A) and B).
Once each programmed integrated dose was reached, the extraction capability of the organic samples was evaluated as detailed in section C).
The irradiation of compound 4 in solid form (in the absence of solvent) and dissolved at a 0.1 mol/L concentration in the "n-dodecane/1-octanol 1 (95:5)%vol" mixture, equilibrated with 3 mol/L nitric acid, was carried out. The applied dose rate was 4 kGy/h and the considered integrated doses were 250 kGy, 500 kGy, 750 kGy and 1000 kGy. After each integrated dose, the extraction capability of Am(III) and Eu(III) was evaluated as described in section C.
The considered integrated doses in this experiment were 500 kGy and 1000 kGy at a dose rate of 4 kGy/h.

[4] = Oxalic acid 0.2 mol/L, HEDTA 0.05 mol/L, TBP 0.5 mol/L
[5] = Oxalic acid 0.2 mol/L, HEDTA 0.05 mol/L, TBP No
[6] = Oxalic acid 0.3 mol/L, HEDTA 0.05 mol/L, TBP 0.5 mol/L
[7] = Oxalic acid 0.3 mol/L, HEDTA 0.05 mol/L, TBP No
[8] = Oxalic acid No, HEDTA No, TBP 0.5 mol/L
[9] = Oxalic acid No, HEDTA No, TBP No
[10] = irradiated dissolved in n-dodecane/1-octanol (95:5)%vol, equilibrated with 3 mol/L nitric acid
[11] = irradiated in the absence of solvent

## 2-Dioctylcarbamoylmethoxy-N-[3-[3-(2-dioctylcarbamoyl-methoxyacetylamino)propoxy]propyl]acetamide [Compound 18]
[1]; [4]
  Distribution coefficients Am-241, α: 55
[1]; [5]
  Distribution coefficients Am-241, α: 46
[1]; [6]
  Distribution coefficients Am-241, α: 90
[1]; [7]
  Distribution coefficients Am-241, α: 87
[1]; [8]
  Distribution coefficients Am-241, α: 56
[1]; [9]
  Distribution coefficients Am-241, α: 96
[2]
  SFEu/Am: 6.0
[3]; [10]
  DEu: 964
[3]; up to 1000 kGy, irradiated dissolved in n-dodecane/1-octanol (95:5)%vol, equilibrated with 3 mol/L nitric acid
  Dn: 531

## 2-Dioctylcarbamoylmethoxy-N-[3-[(2-dioctylcarbamoyl-methoxy-acetylamino)methyl]benzyl]acetamide [Compound 4]
[1]; [4]
  Distribution coefficients Am-241, α: 52
[1]; [5]
  Distribution coefficients Am-241, α: 158
[1]; [6]
  Distribution coefficients Am-241, α: 83
[1]; [7]
  Distribution coefficients Am-241, α: 164
[1]; [8]
  Distribution coefficients Am-241, α: 58
[1]; [9]
  Distribution coefficients Am-241, α: 112
[2]
  SFEu/Am: 4.3
[3]; [10]
  DAm: 180
  DEu: 780
[3]; [11]
  DAm: 540
  DEu: 1000
